Results published in article PMC12519992 (2025).

Key:
[1] = system: dsDNA (dual-labeled) (DNA, duplex) CAATCGGATCGAATTCGATCCGATTG; assay: FRET melting; conditions: K+ 60 mM; 60 mM K-cacodylate (table note: Tris-HCl/KCl), pH 7.4; 1 µM compound
[2] = system: BCL2 (DNA, G4) GGGCGCGGGAGGAATTGGGCGGG; assay: fluorescence titration of ligand, Hill fit; conditions: K+; 100 mM Tris-KCl, pH 7.4, 25 °C; excitation 300 nm
[3] = system: KRAS (DNA, G4) AGGGCGGTGTGGGAAGAGGGAAGAGGGGGAGG; assay: ITC; conditions: K+ 100 mM; 100 mM Tris, 100 mM KCl, pH 7.4; 5 µM DNA, 50 µM ligand
[4] = system: VEGF (DNA, G4) CGGGGCGGGCCGGGGGCGGGGT; assay: ITC; conditions: K+ 100 mM; 100 mM Tris, 100 mM KCl, pH 7.4; 5 µM DNA, 50 µM ligand
[5] = system: BCL2 (DNA, G4) GGGCGCGGGAGGAATTGGGCGGG; assay: ITC; conditions: K+ 100 mM; 100 mM Tris, 100 mM KCl, pH 7.4; 5 µM DNA, 50 µM ligand
[6] = system: c-KIT1 (DNA, G4) GGGAGGGCGCTGGGAGGGAGGG; assay: ITC; conditions: K+ 100 mM; 100 mM Tris, 100 mM KCl, pH 7.4; main text prints ~3.3 µM
[7] = system: c-KIT2 (DNA, G4) GGGCGGGCGCGAGGGAGGGG; assay: ITC; conditions: K+ 100 mM; 100 mM Tris, 100 mM KCl, pH 7.4; main text prints ~2.6 µM
[8] = system: c-MYC27 (DNA, G4) TGAGGGTGGGTAGGGTGGGTAA; assay: ITC; conditions: K+ 100 mM; 100 mM Tris, 100 mM KCl, pH 7.4; 5 µM DNA, 50 µM ligand
[9] = system: KRAS (DNA, G4) AGGGCGGTGTGGGAAGAGGGAAGAGGGGGAGG; assay: fluorescence titration of ligand, Hill fit; conditions: K+; 100 mM Tris-KCl, pH 7.4, 25 °C; excitation 300 nm
[10] = system: c-KIT1 (DNA, G4) GGGAGGGCGCTGGGAGGGAGGG; assay: fluorescence titration of ligand, Hill fit; conditions: K+; 100 mM Tris-KCl, pH 7.4, 25 °C; excitation 300 nm
[11] = system: c-KIT2 (DNA, G4) GGGCGGGCGCGAGGGAGGGG; assay: fluorescence titration of ligand, Hill fit; conditions: K+; 100 mM Tris-KCl, pH 7.4, 25 °C; excitation 300 nm
[12] = system: c-MYC27 (DNA, G4) TGAGGGTGGGTAGGGTGGGTAA; assay: fluorescence titration of ligand, Hill fit; conditions: K+; 100 mM Tris-KCl, pH 7.4, 25 °C; excitation 300 nm
[13] = system: dsDNA (DNA, duplex) CAATCGGATCGAATTCGATCCGATTG; assay: fluorescence titration of ligand, Hill fit; conditions: K+; 100 mM Tris-KCl, pH 7.4, 25 °C; main text: no substantial spectral change with dsDNA, ITC negligible

ΔTm [1] | Kd [2] | KD [3] | KD [4] | KD [5] | KD [6] | KD [7] | KD [8] | Kd [9] | KD [2] | KD [10] | KD [11] | KD [12] | KD [13] | SMILES
0.01 °C | – | – | – | – | – | – | – | – | – | – | – | – | – | C[n+]1cc(NC(=O)c2ccc3ccc4ccc(C(=O)Nc5cc6ccccc6[n+](C)c5)nc4c3n2)cc2ccccc21
– | 1800 nM | – | – | – | – | – | – | – | – | – | – | – | – | Nc1nc(C(=O)Nc2ccc(-n3cc(CNC(=O)c4csc(NC(=O)c5csc(N)n5)n4)nn3)cc2)cs1
0.07 °C | – | 530 ± 250 nM | 17700 ± 4000 nM | 3000 ± 100 nM | 2200 ± 1000 nM | 3700 ± 300 nM | 2280 ± 740 nM | 800 nM | 1500 nM | 2000 nM | 1500 nM | 2500 nM | 2200 nM | Nc1nc(C(=O)Nc2nc(C(=O)NCc3cn(-c4ccc(NC(=O)[C@@H]5CCCN5)cc4)nn3)cs2)cs1
